# Source: PMC7481290, “Halogenation as a tool to tune antimicrobial activity of peptoids” (Scientific Reports, 2020)
# Non-standard residues stand in square brackets, D forms with d. Residues, ends and D or L forms follow the SMILES beside them. Nspe = C[C@H](NCC(=O)O)c1ccccc1; Nlys = NCCCCNCC(=O)O
# Legend:
# [1] = test system: P. aeruginosa PA01 (H103); format: cell-based, Pseudomonas aeruginosa; settings: Table 2; P. aeruginosa PA01 H103
# Outline: (§1)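 Broth microdilution per CLSI in MHB II, final inoculum 5 × 10^5 CFU/mL, with twofold peptoid dilutions. Incubation was 18 h at 37 °C in ambient air. MIC was taken as the lowest concentration without visible growth, from two experiments on different days in technical triplicate.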
# [2] = test system: E. coli ATCC 25922; format: cell-based, Escherichia coli; settings: Table 2; E. coli ATCC 25922
# Outline: as §1
# [3] = test system: Methicillin-resistant S. epidermidis ATCC 51625; format: cell-based, Staphylococcus epidermidis; settings: Table 2; MRSE ATCC 51625
# Outline: as §1
# [4] = test system: Methicillin-resistant S. epidermidis ET-024; format: cell-based, Staphylococcus epidermidis; settings: Table 2; MRSE ET-024
# Outline: as §1
# [5] = test system: Methicillin-resistant S. aureus USA 300; format: cell-based, Staphylococcus aureus; settings: Table 2; MRSA USA 300
# Outline: as §1
# [6] = test system: S. aureus ATCC 25923; format: cell-based, Staphylococcus aureus; settings: Table 2; S. aureus ATCC 25923
# Outline: as §1
# [7] = test system: HaCaT cell line; format: cell-based, human; settings: 1 h exposure, MTS/PMS assay; interval in brackets
# Protocol: An immortalized human keratinocytes (HaCaT) cell line (Gift from David G. Naym at Bispebjerg Hospital) were cultured to ∼90% confluence after 21–25 h of growth at 5% CO2 and 37 °C as previously. In brief, the cells were cultured in Dulbecco’s Modified Eagle’s Medium supplemented with 10% (v/v) fetal bovine serum, penicillin (100 IU/mL), and streptomycin (100 μg/mL), purchased from Sigma-Aldrich (St. Louis, MO, United States).
# Cell viability assessment was performed on cell monolayers grown to ∼90% confluence in 96-well plates Corning Costar (Sigma-Aldrich, Brøndby, Denmark) by using the MTS/PMS assay as previously described. Briefly, the adhered cells were washed with 37 °C PBS solution (ThermoFisher Scientific, Roskilde) and exposed for 1 h at 37 °C to 100 μL of peptoids dissolved in the medium also used for culturing of the cell line (at concentrations in the range 0–1,000 μg/mL). The precise exposure-time were selected to enable comparison with related peptoid compounds[21],[35]. […] A plate reader (SpectraMax i3X; Molecular devices, San Jose, CA) was used to measure the absorbance at 492 nm. The relative viability was calculated by using 0.2% (w/v) sodium dodecyl sulfate (SDS) as the positive control, while cells exposed to medium without test compound were used as the negative control. […]
smiles,measurement,setting,value
"C[C@@H](c1ccccc1)N(CC(N)=O)C(=O)CN(C(=O)CN(CCCCN)C(=O)CN(C(=O)CN(C(=O)CN(CCCCN)C(=O)CN(C(=O)CN(C(=O)CN(CCCCN)C(=O)CN(C(=O)CN(C(=O)CNCCCCN)[C@@H](C)c1ccccc1)[C@@H](C)c1ccccc1)[C@@H](C)c1ccccc1)[C@@H](C)c1ccccc1)[C@@H](C)c1ccccc1)[C@@H](C)c1ccccc1)[C@@H](C)c1ccccc1 [Peptoid 1, reference compound] (H-[Nlys][Nspe][Nspe][Nlys][Nspe][Nspe][Nlys][Nspe][Nspe][Nlys][Nspe][Nspe]-NH2)",MIC PA^f,[1],16 µg/mL
same,MIC EC^e,[2],8 µg/mL
same,MIC MRSE^d,[3],8 µg/mL
same,MIC MRSE^c,[4],4 µg/mL
same,MIC MRSA^b,[5],8 µg/mL
same,MIC SA^a,[6],8 µg/mL
same,IC50 towards HaCaT cell line,[7],35.0 (30.9 to 39.9) μg/mL
